Patent publication US20260109707A1, “HETEROBIFUNCTIONAL COMPOUNDS AND METHODS OF TREATING DISEASE” (Halda Therapeutics OpCo. Inc., priority 2022, published 2026)

Tests used:
Format in all cases: cell-based
[1] = tested on: T-Rex 293 cell line SC cells lacking increased expression of progesterone receptor isoform B protein; experiment: Cellular growth inhibition assay, T-Rex 293 SC cells without doxycycline (CellTiter-Glo, 72 hours); conditions: T-Rex 293 SC cells not exposed to doxycycline
Method: (§1) The following types of cells were prepared for this experiment: (i) a T-Rex 293 cell line having increased expression of progesterone receptor isoform B protein due to exposure to doxycycline and (ii) a T-Rex 293 cell line lacking increased expression of progesterone receptor isoform B protein. Ability of the test compounds to inhibit proliferation of the foregoing cell types was evaluated according to the procedures set forth below.
(§2) The doxycycline-inducible progesterone receptor isoform B protein expressing cell line was established using the following protocol: T-Rex 293 cells were purchased from Invitrogen (Cat #R71007) and transfected using Lipofectamine 2000 with the wild-type progesterone receptor B protein sequence cloned into the pcDNA4/TO vector. Transfected cells were selected using 400 μg/mL Zeocin (Invitrogen Cat #R25001). Following selection, single clones were raised and maintained in Dulbecco's Modified Eagle Medium (DMEM) supplemented with 10% w/w Tetracycline-free fetal bovine serum (FBS) and 250 μg/mL Zeocin. Clones were analyzed for expression of progesterone receptor isoform B protein in the presence and absence of 10 ng/mL doxycycline (Sigma Cat #D9891), and a single doxycycline-inducible clone (hereinafter “SC”) was selected for use in downstream assays.
(§3) The SC cells were seeded on poly-D-lysine coated, black clear-bottom 384-well plates at 2500/well, in 25 μL Phenol Red Free Dulbecco's Modified Eagle Medium (DMEM) supplemented with 10% w/w charcoal-dextran treated fetal bovine serum (FBS) and 1% w/w pen-strep, with or without 10 ng/mL doxycycline. Pen-Strep is a commercially available mixture of penicillin G and streptomycin, which is used in mammalian cell culture media to prevent bacterial contamination. Phenol Red Free Dulbecco's Modified Eagle Medium (DMEM) supplemented with 10% w/w charcoal-dextran treated fetal bovine serum (FBS) and 1% w/w pen-strep, with or without 10 ng/mL doxycycline is herein referred to as Treatment Medium. Following seeding of cells in the plates, the plates were spun at 300×g for 30 seconds, then equilibrated to room temperature for 30 minutes, and then deposited in a humidified tissue culture incubator maintained at 37° C. with 5% CO2.
(§4) At 24 hours after seeding of the cells, dilutions of test compound were prepared in DMSO and dissolved in Treatment Medium, to achieve a final DMSO concentration of 0.5% w/w, thereby providing the Test Compound Solution. A 25 μL aliquot of the Test Compound Solution was added to cells in the well plates. An equal volume of a solution containing DMSO and Treatment Medium was used as a negative control. Following treatment of cells with Test Compound Solution or said equal volume of a solution containing DMSO and Treatment Medium, the plates were spun at 300×g for 30 seconds, and then left in an incubator for 72 hours.
(§5) At the end of the treatment duration, cell viability was quantified with CellTiter-Glo 2.0 reagent (Promega Cat #G9243). For this purpose, plates were equilibrated to room temperature for 30 minutes, and then 25 μL of CellTiter-Glo 2.0 reagent was added to cells in the plate wells. Plates were then agitated on a shaker for two minutes at 500 rpm and subsequently incubated at room temperature for 10 minutes. Following incubation, the plates were spun at 3000×g for 30 seconds, then sealed with an optical adhesive cover, and luminescence readings were measured with an EnVision Plate Reader (Perkin Elmer).
(§6) Data was normalized using zero luminescence for baseline. A four-parameter non-linear regression curve fit was applied to dose-response data in GraphPad Prism data analysis software to determine the half-maximal growth inhibitory concentration (GI50) for each test compound.

[2] = Cellular growth inhibition assay, T-Rex 293 SC cells with doxycycline (CellTiter-Glo, 72 hours); conditions: T-Rex 293 SC cells with doxycycline (increased progesterone receptor isoform B)
Method: as §1, §2, §3, §4, §5, §6

[3] = tested on: T-Rex 293 cell line SC3 cells lacking increased expression of androgen receptor protein; experiment: Cellular growth inhibition assay, T-Rex 293 SC3 cells without doxycycline (CellTiter-Glo, 72 hours); conditions: 72 h, T-Rex 293 cell line SC3 cells not exposed to doxycycline (lacking increased androgen receptor expression)
Method in brief: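 Growth inhibition is measured in an inducible AR-expressing T-Rex 293 clone, SC3, cultured with or without 10 ng/mL doxycycline in hormone-depleted medium. Test compounds are applied for 72 hours. GI50 values derive from CellTiter-Glo 2.0 signal fitted by four-parameter regression.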

Cc1sc2c(c1C)C(c1ccc(Cl)cc1)=N[C@@H](CC(=O)NCCOC1CCN(c3ccc(C(=O)N[C@H]4CC[C@H](Oc5ccc(C#N)c(Cl)c5)CC4)nn3)CC1)c1nnc(C)n1-2 [I-1, N-[4-(3-chloro-4-cyano-phenoxy)cyclohexyl]-6-[4-[2-[[2-[(9S)-7-(4-chlorophenyl)-4,5,13-trimethyl-3-thia-1,8,11,12-tetrazatricyclo[8.3.0.0^2,6]trideca-2(6),4,7,10,12-pentaen-9-yl]acetyl]amino]ethoxy]-1-piperidyl]pyridazine-3-carboxamide]
GI50 [1]: < 500 nM
GI50 [2]: < 500 nM
GI50 [3]: 500 to 1500 nM

Cc1sc2c(c1C)C(c1ccc(Cl)cc1)=N[C@@H](CC(=O)NCCOCCOCCOC1CCN(c3ccc(C(=O)N[C@H]4CC[C@H](Oc5ccc(C#N)c(Cl)c5)CC4)nn3)CC1)c1nnc(C)n1-2 [I-2, N-[4-(3-chloro-4-cyano-phenoxy)cyclohexyl]-6-[4-[2-[2-[2-[[2-[(9S)-7-(4-chlorophenyl)-4,5,13-trimethyl-3-thia-1,8,11,12-tetrazatricyclo[8.3.0.0^2,6]trideca-2(6),4,7,10,12-pentaen-9-yl]acetyl]amino]ethoxy]ethoxy]ethoxy]-1-piperidyl]pyridazine-3-carboxamide]
GI50 [1]: > 3000 nM
GI50 [2]: < 500 nM
GI50 [3]: 500 to 1500 nM

CCNC(=O)C[C@@H]1N=C(c2ccc(OCCOC3CCN(c4ccc(C(=O)N[C@H]5CC[C@H](Oc6ccc(C#N)c(Cl)c6)CC5)nn4)CC3)cc2)c2c(sc(C)c2C)-n2c(C)nnc21 [I-8]
GI50 [1]: < 500 nM
GI50 [2]: < 500 nM
GI50 [3]: < 500 nM

CCNC(=O)C[C@@H]1N=C(c2ccc(OCCOCCOC3CCN(c4ccc(C(=O)N[C@H]5CC[C@H](Oc6ccc(C#N)c(Cl)c6)CC5)nn4)CC3)cc2)c2c(sc(C)c2C)-n2c(C)nnc21 [I-10]
GI50 [1]: < 500 nM
GI50 [2]: < 500 nM
GI50 [3]: 500 to 1500 nM

CCNC(=O)C[C@@H]1N=C(c2ccc(CCCOC3CCN(c4ccc(C(=O)N[C@H]5CC[C@H](Oc6ccc(C#N)c(Cl)c6)CC5)nn4)CC3)cc2)c2c(sc(C)c2C)-n2c(C)nnc21 [I-17]
GI50 [3]: < 500 nM

CCNC(=O)C[C@@H]1N=C(c2ccc(CC3CCN(c4ccc(C(=O)N[C@H]5CC[C@H](Oc6ccc(C#N)c(Cl)c6)CC5)nn4)CC3)cc2)c2c(sc(C)c2C)-n2c(C)nnc21 [I-20]
GI50 [1]: 500 to 1500 nM
GI50 [2]: < 500 nM
GI50 [3]: < 500 nM

CCNC(=O)C[C@@H]1N=C(c2ccc(N3CC4(C3)CN(c3ccc(C(=O)N[C@H]5CC[C@H](Oc6ccc(C#N)c(Cl)c6)CC5)nn3)C4)cc2)c2c(sc(C)c2C)-n2c(C)nnc21 [I-24]
GI50 [1]: 500 to 1500 nM
GI50 [2]: < 500 nM
GI50 [3]: 500 to 1500 nM

CCNC(=O)C[C@@H]1N=C(c2ccc(OCC3CN(c4ccc(C(=O)N[C@H]5CC[C@H](Oc6ccc(C#N)c(Cl)c6)CC5)nn4)C3)cc2)c2c(sc(C)c2C)-n2c(C)nnc21 [I-29]
GI50 [3]: 500 to 1500 nM

CCNC(=O)C[C@@H]1N=C(c2ccc(N3CCC(OC4CCN(c5ccc(C(=O)N[C@H]6CC[C@H](Oc7ccc(C#N)c(Cl)c7)CC6)nn5)CC4)CC3)cc2)c2c(sc(C)c2C)-n2c(C)nnc21 [I-44]
GI50 [3]: 500 to 1500 nM

CCNC(=O)C[C@@H]1N=C(c2ccc(OCCCN(C)c3ccc(C(=O)N[C@H]4CC[C@H](Oc5ccc(C#N)c(Cl)c5)CC4)nn3)cc2)c2c(sc(C)c2C)-n2c(C)nnc21 [I-48]
GI50 [3]: 500 to 1500 nM
